Calls of active or inactive are those of the source. The calls are words filed in the database; no cut-off is given here.
Test system: PC-3
Assay: Cell cycle arrest in human PC3 cells assessed as accumulation at M phase by Hoechst staining based fluorescence assay
Type: functional
Details: not given

Structure (SMILES)	Activity
COc1cc(OC)c(C(=O)/C=C/c2ccccc2)c(OC)c1	Active

Test system: HCT-116
Assay: Cytotoxicity against human HCT116 cells assessed as cell survival at 50 uM after 48 hrs by Hoechst 33342 staining based assay relative to control
Type: functional
Details: HCT-116, 48 h, read-out: Survival

Structure (SMILES)	viability at 50 µM
COc1cc(OC)c(C(=O)/C=C/c2ccccc2)c(OC)c1	1%

Test system: MCF7
Assay: Induction of apoptosis in human MCF7 cells harboring wild-type p53 assessed as increase in late apoptosis at 2 times IC50 after 24 hrs by YoPro/propidium iodide/Hoechst staining based assay
Type: functional, cell-based
Details: not given

Structure (SMILES)	Activity
COc1cc(OC)c(C(=O)/C=C/c2ccccc2)c(OC)c1	Active

Test system: Caco-2
Assay: Cell cycle arrest in human Caco2 cells assessed as accumulation at S phase at 25 uM measured after 48 hrs by Hoechst/BrdU staining based fluorescence assay (reference value: […])
Type: functional
Details: not given

Structure (SMILES)	Activity
COc1cc(OC)c(C(=O)/C=C/c2ccccc2)c(OC)c1	24%

Test system: HCT-116
Assay: Cell cycle arrest in human HCT116 cells harboring wild-type p53 assessed as accumulation at S phase at 25 uM measured after 48 hrs by Hoechst/BrdU staining based fluorescence assay (reference value: 68.4%)
Type: functional
Details: not given

Structure (SMILES)	Activity
COc1cc(OC)c(C(=O)/C=C/c2ccccc2)c(OC)c1	2.6%

Test system: PC-3
Assay: Induction of apoptosis in human PC3 cells harboring p53 mutant assessed as upregulation of cyclinB1 after 48 hrs by Hoechst staining based assay
Type: functional, cell-based
Details: not given

Structure (SMILES)	Activity
COc1cc(OC)c(C(=O)/C=C/c2ccccc2)c(OC)c1	Active

Test system: NCI-H727
Assay: Cell cycle arrest in human NCI-H727 cells harboring p53 mutant assessed as accumulation at S phase at 10 uM measured after 48 hrs by Hoechst/BrdU staining based fluorescence assay (reference value: 40.3%)
Type: functional
Details: not given

Structure (SMILES)	Activity
COc1cc(OC)c(C(=O)/C=C/c2ccccc2)c(OC)c1	34%

Test system: HaCaT
Assay: Cytotoxicity against human HaCaT cells assessed as cell survival at 50 uM after 48 hrs by Hoechst 33342 staining based assay relative to control
Type: functional
Details: read-out: Survival

Structure (SMILES)	viability at 50 µM
COc1cc(OC)c(C(=O)/C=C/c2ccccc2)c(OC)c1	20%

Test system: PC-3
Assay: Induction of apoptosis in human PC3 cells harboring p53 mutant assessed as increase in late apoptosis at 2 times IC50 after 48 hrs by YoPro/propidium iodide/Hoechst staining based assay
Type: functional, cell-based
Details: not given

Structure (SMILES)	Activity
COc1cc(OC)c(C(=O)/C=C/c2ccccc2)c(OC)c1	Active

Test system: not listed separately
Assay: Selectivity index, ratio of IC50 for human fibroblasts to IC50 for human Caco2 cells
Details: not given

Structure (SMILES)	Ratio IC50
COc1cc(OC)c(C(=O)/C=C/c2ccccc2)c(OC)c1	>8.6

Test system: Huh-7
Assay: Cell cycle arrest in human HuH7 cells assessed as mitotic index at 10 uM measured after 48 hrs by Hoechst staining based fluorescence assay (reference value: 2.2)
Type: functional
Details: not given

Structure (SMILES)	Activity_index
COc1cc(OC)c(C(=O)/C=C/c2ccccc2)c(OC)c1	8.5

Test system: NCI-H727
Assay: Cell cycle arrest in human NCI-H727 cells harboring p53 mutant assessed as accumulation at S phase at 25 uM measured after 48 hrs by Hoechst/BrdU staining based fluorescence assay (reference value: 40.3%)
Type: functional
Details: not given

Structure (SMILES)	Activity
COc1cc(OC)c(C(=O)/C=C/c2ccccc2)c(OC)c1	4.5%

Test system: MDA-MB-231
Assay: Cytotoxicity against human MDA-MB-231 cells assessed as cell viability after 48 hrs by Hoechst 33342 staining based assay
Type: functional
Details: MDA-MB-231, 48 h

Structure (SMILES)	IC50
COc1cc(OC)c(C(=O)/C=C/c2ccccc2)c(OC)c1	12.9 µM

Test system: MDA-MB-231
Assay: Cytotoxicity against human MDA-MB-231 cells assessed as cell survival at 50 uM after 48 hrs by Hoechst 33342 staining based assay relative to control
Type: functional
Details: MDA-MB-231, 48 h, read-out: Survival

Structure (SMILES)	viability at 50 µM
COc1cc(OC)c(C(=O)/C=C/c2ccccc2)c(OC)c1	13%

Test system: not listed separately
Assay: Selectivity index, ratio of IC50 for human fibroblasts to IC50 for human MDA-MB-231 cells
Details: not given

Structure (SMILES)	Ratio IC50
COc1cc(OC)c(C(=O)/C=C/c2ccccc2)c(OC)c1	>3.9

Test system: not listed separately
Assay: Selectivity index, ratio of IC50 for human fibroblasts to IC50 for human HCT116 cells
Details: not given

Structure (SMILES)	Ratio IC50
COc1cc(OC)c(C(=O)/C=C/c2ccccc2)c(OC)c1	>7.2

Test system: MDA-MB-231
Assay: Induction of apoptosis in human MDA-MB-231 cells harboring p53 mutant assessed as increase in late apoptosis at 2 times IC50 after 24 hrs by YoPro/propidium iodide/Hoechst staining based assay
Type: functional, cell-based
Details: not given

Structure (SMILES)	Activity
COc1cc(OC)c(C(=O)/C=C/c2ccccc2)c(OC)c1	Active

Test system: Huh-7
Assay: Cell cycle arrest in human HuH7 cells assessed as mitotic index at 25 uM measured after 48 hrs by Hoechst staining based fluorescence assay (reference value: 2.2)
Type: functional
Details: not given

Structure (SMILES)	Activity_index
COc1cc(OC)c(C(=O)/C=C/c2ccccc2)c(OC)c1	0.6

Test system: MDA-MB-231
Assay: Cell cycle arrest in human MDA-MB-231 cells harboring p53 mutant assessed as mitotic index at 10 uM measured after 48 hrs by Hoechst staining based fluorescence assay (reference value: 2.1)
Type: functional
Details: not given

Structure (SMILES)	Activity_index
COc1cc(OC)c(C(=O)/C=C/c2ccccc2)c(OC)c1	21

Test system: Caco-2
Assay: Cytotoxicity against human Caco2 cells assessed as cell survival at 50 uM after 48 hrs by Hoechst 33342 staining based assay relative to control
Type: functional
Details: Caco-2, 48 h, read-out: Survival

Structure (SMILES)	viability at 50 µM
COc1cc(OC)c(C(=O)/C=C/c2ccccc2)c(OC)c1	5%

Test system: not listed separately
Assay: Selectivity index, ratio of IC50 for human fibroblasts to IC50 for human MCF7 cells
Details: not given

Structure (SMILES)	Ratio IC50
COc1cc(OC)c(C(=O)/C=C/c2ccccc2)c(OC)c1	>5.3

Test system: HaCaT
Assay: Cell cycle arrest in human HaCaT cells harboring […] p53 assessed as mitotic index at 10 uM measured after 48 hrs by Hoechst staining based fluorescence assay (reference value: 2.6)
Type: functional
Details: not given

Structure (SMILES)	Activity_index
COc1cc(OC)c(C(=O)/C=C/c2ccccc2)c(OC)c1	18.3

Test system: RL
Assay: Cytotoxicity against human RL assessed as cell viability after 48 hrs by Hoechst 33342 staining based assay
Type: functional
Details: not given

Structure (SMILES)	IC50
COc1cc(OC)c(C(=O)/C=C/c2ccccc2)c(OC)c1	6.9 µM

Test system: HCT-116
Assay: Cytotoxicity against human HCT116 cells assessed as cell viability after 48 hrs by Hoechst 33342 staining based assay
Type: functional
Details: HCT-116, 48 h

Structure (SMILES)	IC50
COc1cc(OC)c(C(=O)/C=C/c2ccccc2)c(OC)c1	6.9 µM

Test system: MDA-MB-231
Assay: Cell cycle arrest in human MDA-MB-231 cells harboring p53 mutant assessed as accumulation at S phase at 10 uM measured after 48 hrs by Hoechst/BrdU staining based fluorescence assay (reference value: 42.2%)
Type: functional
Details: not given

Structure (SMILES)	Activity
COc1cc(OC)c(C(=O)/C=C/c2ccccc2)c(OC)c1	37%

Test system: PC-3
Assay: Cell cycle arrest in human PC3 cells harboring p53 mutant assessed as accumulation at S phase at 10 uM measured after 48 hrs by Hoechst/BrdU staining based fluorescence assay (reference value: 40.8%)
Type: functional
Details: not given

Structure (SMILES)	Activity
COc1cc(OC)c(C(=O)/C=C/c2ccccc2)c(OC)c1	24%

Test system: HaCaT
Assay: Cell cycle arrest in human HaCaT cells harboring […] p53 assessed as accumulation at S phase at 25 uM measured after 48 hrs by Hoechst/BrdU staining based fluorescence assay (reference value: 52.3%)
Type: functional
Details: not given

Structure (SMILES)	Activity
COc1cc(OC)c(C(=O)/C=C/c2ccccc2)c(OC)c1	0.1%

Test system: MDA-MB-231
Assay: Cell cycle arrest in human MDA-MB-231 cells harboring p53 mutant assessed as accumulation at S phase at 25 uM measured after 48 hrs by Hoechst/BrdU staining based fluorescence assay (reference value: 42.2%)
Type: functional
Details: not given

Structure (SMILES)	Activity
COc1cc(OC)c(C(=O)/C=C/c2ccccc2)c(OC)c1	23%

Test system: not listed separately
Assay: Selectivity index, ratio of IC50 for human fibroblasts to IC50 for human HuH7 cells
Details: not given

Structure (SMILES)	Ratio IC50
COc1cc(OC)c(C(=O)/C=C/c2ccccc2)c(OC)c1	>3.2

Test system: HCT-116
Assay: Cell cycle arrest in human HCT116 cells harboring wild-type p53 assessed as mitotic index at 25 uM measured after 48 hrs by Hoechst staining based fluorescence assay (reference value: 2.3)
Type: functional
Details: not given

Structure (SMILES)	Activity_index
COc1cc(OC)c(C(=O)/C=C/c2ccccc2)c(OC)c1	0.8

Test system: HaCaT
Assay: Cell cycle arrest in human HaCaT cells harboring […] p53 assessed as accumulation at S phase at 10 uM measured after 48 hrs by Hoechst/BrdU staining based fluorescence assay (reference value: 52.3%)
Type: functional
Details: not given

Structure (SMILES)	Activity
COc1cc(OC)c(C(=O)/C=C/c2ccccc2)c(OC)c1	18%

Test system: MCF7
Assay: Induction of apoptosis in human MCF7 cells harboring wild-type p53 assessed as increase in early apoptosis at 2 times IC50 after 24 hrs by YoPro/propidium iodide/Hoechst staining based assay
Type: functional, cell-based
Details: not given

Structure (SMILES)	Activity
COc1cc(OC)c(C(=O)/C=C/c2ccccc2)c(OC)c1	Active

Test system: not listed separately
Assay: Selectivity index, ratio of IC50 for human fibroblasts to IC50 for human RL cells
Details: not given

Structure (SMILES)	Ratio IC50
COc1cc(OC)c(C(=O)/C=C/c2ccccc2)c(OC)c1	>7.2

Test system: PC-3
Assay: Cell cycle arrest in human PC3 cells harboring p53 mutant assessed as accumulation at S phase at 25 uM measured after 48 hrs by Hoechst/BrdU staining based fluorescence assay (reference value: 40.8%)
Type: functional
Details: not given

Structure (SMILES)	Activity
COc1cc(OC)c(C(=O)/C=C/c2ccccc2)c(OC)c1	1.7%

Test system: MDA-MB-231
Assay: Cell cycle arrest in human MDA-MB-231 cells assessed as accumulation at M phase by Hoechst staining based fluorescence assay
Type: functional
Details: not given

Structure (SMILES)	Activity
COc1cc(OC)c(C(=O)/C=C/c2ccccc2)c(OC)c1	Active

Test system: HCT-116
Assay: Induction of apoptosis in human HCT116 cells harboring wild-type p53 assessed as upregulation of p21 measured after 48 hrs by Hoechst staining based fluorescence assay
Type: functional, cell-based
Details: not given

Structure (SMILES)	Activity
COc1cc(OC)c(C(=O)/C=C/c2ccccc2)c(OC)c1	Active

Test system: HaCaT
Assay: Cytotoxicity against human HaCaT cells assessed as cell viability after 48 hrs by Hoechst 33342 staining based assay
Type: functional
Details: not given

Structure (SMILES)	IC50
COc1cc(OC)c(C(=O)/C=C/c2ccccc2)c(OC)c1	7.2 µM

Test system: NCI-H727
Assay: Cytotoxicity against human NCI-H727 cells assessed as cell survival at 50 uM after 48 hrs by Hoechst 33342 staining based assay relative to control
Type: functional
Details: NCI-H727, 48 h, read-out: Survival

Structure (SMILES)	viability at 50 µM
COc1cc(OC)c(C(=O)/C=C/c2ccccc2)c(OC)c1	1%
